Assay results: patent US9045524B2, “Selective caspase inhibitors and uses thereof” (NOVAGENESIS FOUNDATION, priority 2009, dated 2015)
Where a name gives a salt, the structure may show the parent alone. Read-outs that look alike come from different tables or passages of the source. Square brackets hold non-standard residues; d marks the D form. Peptide text beside a SMILES is read from it. * marks the point of attachment. Phg = N[C@H](C(=O)O)c1ccccc1; Cbz = O=C(OCc1ccccc1)*; OtBu = CC(C)(C)O*

Key:
Caspase-7 = Caspase-7 (Homo sapiens (Human), UniProt P55210); assay: Caspase-7 Inhibitor Drug Screening Kit, fluorometric (AFC liberation); assay type: biochemical; details: 30-minute incubation at 37° C.; approximations of the average values; read-out: Caspase enzymatic activity, IC50 (uM) Caspase 7
Sequence of Caspase-7 (P55210 whole entry): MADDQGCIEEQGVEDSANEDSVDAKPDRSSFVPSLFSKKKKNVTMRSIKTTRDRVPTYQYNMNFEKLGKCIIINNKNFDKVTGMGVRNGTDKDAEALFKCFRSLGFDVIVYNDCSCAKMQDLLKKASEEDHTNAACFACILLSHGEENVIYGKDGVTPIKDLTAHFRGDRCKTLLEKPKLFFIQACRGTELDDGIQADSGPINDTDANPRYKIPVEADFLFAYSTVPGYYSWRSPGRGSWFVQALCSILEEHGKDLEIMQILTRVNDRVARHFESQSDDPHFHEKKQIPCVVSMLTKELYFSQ
Experimental: (§1) The level of inhibition of caspase-1, -3, -5, -7, -9 activity was determined by comparison of the relative fluorescence intensity in samples with or without the compound.

Caspase-5 = Caspase-5 (Homo sapiens (Human), UniProt P51878); assay: Caspase-5 Inhibitor Drug Screening Kit, fluorometric (AFC liberation); assay type: biochemical; details: for IC50: 30-minute incubation at 37° C., approximations of the average values, read-out: Caspase enzymatic activity, IC50 (uM) Caspase 5
Sequence of Caspase-5 (P51878 137-434): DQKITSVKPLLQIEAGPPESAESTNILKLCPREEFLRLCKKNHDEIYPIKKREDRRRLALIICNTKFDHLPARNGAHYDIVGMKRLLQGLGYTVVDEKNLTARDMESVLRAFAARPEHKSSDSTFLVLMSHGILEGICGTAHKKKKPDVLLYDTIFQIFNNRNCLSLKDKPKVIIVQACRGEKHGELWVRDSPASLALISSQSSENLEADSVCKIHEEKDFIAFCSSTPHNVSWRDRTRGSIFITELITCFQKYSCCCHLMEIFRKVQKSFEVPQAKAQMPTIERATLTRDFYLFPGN
Experimental: as §1

Caspase-1 = Caspase-1 (Homo sapiens (Human), UniProt P29466); assay: Caspase-1 Inhibitor Drug Screening Kit, fluorometric (AFC liberation); assay type: biochemical; details: for IC50: 30-minute incubation at 37° C., approximations of the average values, read-out: Caspase enzymatic activity, IC50 (uM) Caspase 1
Sequence of Caspase-1 (P29466 120-404): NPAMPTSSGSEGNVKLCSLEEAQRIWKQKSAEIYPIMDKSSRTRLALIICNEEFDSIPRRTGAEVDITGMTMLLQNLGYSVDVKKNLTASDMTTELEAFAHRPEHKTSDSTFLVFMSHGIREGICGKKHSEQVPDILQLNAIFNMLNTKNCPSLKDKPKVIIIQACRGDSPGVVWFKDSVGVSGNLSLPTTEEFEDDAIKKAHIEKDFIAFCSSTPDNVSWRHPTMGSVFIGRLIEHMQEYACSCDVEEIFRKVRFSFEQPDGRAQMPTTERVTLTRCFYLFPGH
Experimental: as §1

Caspase-3 = Caspase-3 (Homo sapiens (Human), UniProt P42574); assay: Caspase-3 Inhibitor Drug Screening Kit, fluorometric (AFC liberation); assay type: biochemical
Sequence of Caspase-3 (P42574 29-277): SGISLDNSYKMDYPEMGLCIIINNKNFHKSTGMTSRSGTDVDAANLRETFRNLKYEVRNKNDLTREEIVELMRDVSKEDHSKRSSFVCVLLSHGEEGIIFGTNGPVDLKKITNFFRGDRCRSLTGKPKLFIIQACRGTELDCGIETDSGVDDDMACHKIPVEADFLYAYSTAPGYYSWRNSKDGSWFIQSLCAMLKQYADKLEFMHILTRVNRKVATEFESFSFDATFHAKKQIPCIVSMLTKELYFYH
Experimental: as §1

Glo3/7 = Glo3/7 assay; assay type: biochemical
[1] = test system: proteolytic cleavage of PARP (poly ADP-ribose polymerase) in Hela cells; assay: Inhibition of staurosporine-induced PARP cleavage in live Hela cells; assay type: cell-based; details: for inhibition at 50 µM: Homo sapiens, HeLa; for effectivity in inhibiting PARP cleavage: staurosporine
Experimental: To test the efficacy of caspase-3 inhibitors at the cellular level, the ability of selected compounds to inhibit the proteolytic cleavage of PARP (poly ADP-ribose polymerase) was evaluated in live Hela cells.
Briefly, in this assay Hela cells are seeded in 96 well plates and incubated for 4 hours with staurosporine, a well characterized inducer of apoptosis, alone or together with different concentrations of compound (50, 25, 10 and 3 uM). After formaldehyde-based fixation, the cells are stained with a fluorescein-labeled anti-cleaved PARP antibody (Cell signaling, Cat#: 9547) and counterstained with Hoechst33342 (Invitrogen, Cat#: H3570) to mark all nuclei. Fluorescence images are taken on a Cellomics™ microscope system (Thermo Scientific, Pittsburgh, USA) with the Hoechst stain in the blue channel and the cleaved PARP antibody stain in the green channel. The percentage of cleaved PARP positive cells is determined by calculating the ratio between nuclei with a cleaved PARP antibody staining above a certain threshold and all (Hoechst positive) nuclei. The efficacy of caspase-3 inhibition is determined by calculating the ratio between cleaved PARP positive cells after staurosporine incubation together with compounds and staurosporine incubation without compounds.

Caspase-9 = Caspase-9 (Homo sapiens (Human), UniProt P55211); assay: Caspase-9 Inhibitor Drug Screening Kit, fluorometric (AFC liberation); assay type: biochemical; details: for IC50: 30-minute incubation at 37° C., approximations of the average values, read-out: Caspase enzymatic activity, IC50 (uM) Caspase 9
Sequence of Caspase-9 (P55211 whole entry): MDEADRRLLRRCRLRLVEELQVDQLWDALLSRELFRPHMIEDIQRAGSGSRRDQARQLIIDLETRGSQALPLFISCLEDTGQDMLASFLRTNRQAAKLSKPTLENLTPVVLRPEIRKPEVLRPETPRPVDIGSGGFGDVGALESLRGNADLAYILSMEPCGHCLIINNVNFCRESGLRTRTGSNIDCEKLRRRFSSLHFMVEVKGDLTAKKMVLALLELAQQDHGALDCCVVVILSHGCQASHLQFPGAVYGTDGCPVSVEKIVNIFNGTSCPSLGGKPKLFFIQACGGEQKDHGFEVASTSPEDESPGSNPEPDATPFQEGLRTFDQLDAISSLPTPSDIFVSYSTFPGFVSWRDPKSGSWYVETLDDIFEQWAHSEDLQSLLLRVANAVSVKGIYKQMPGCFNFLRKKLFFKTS
Experimental: as §1

[2] = 30-minute incubation at 37° C., approximations of the average values, read-out: Caspase enzymatic activity, IC50 (uM) Caspase 3
[3] = Hela cells, 50 uM, read-out: % of inhibition with compound relative to DEVDFMK
[4] = 4 h, read-out: % inhibition of PARP cleavage at 50 uM compound, Hela cells, staurosporine 4 hours, 50 uM compound
[5] = at the tested dose-range (1 to 3333 nM)

`CC(C)[C@H](NC(=O)[C@H](Cc1ccc2ccccc2n1)NC(=O)[C@H](CC(=O)OC(C)(C)C)NC(=O)OCc1ccccc1)C(=O)N[C@H](/C=C/S(=O)(=O)N1CCOCC1)CC(=O)OC(C)(C)C` [Compound 66, Z-Asp(β-tert-Butyl)-Ala(2′-quinolyl)-Val-Asp(β-tert-Butyl)morpholine Vinyl Sulfone] gave an IC50 (Caspase-7) greater than 3.33 µM, an IC50 (Caspase-5) greater than 3.33 µM and an IC50 (Caspase-1) greater than 3.33 µM. For the same compound, the IC50 (Caspase-3; [2]) was 0.2 µM, the IC50 (Glo3/7) was 1.4 µM and the inhibition at 50 µM [1, 3] was 35%. For the same compound, the IC50 (Caspase-9) was greater than 3.33 µM.
In the case of `CC(C)(C)OC(=O)C[C@H](N)/C=C/S(C)(=O)=O.Cc1ccc(S(=O)(=O)O)cc1` [Compound 33, Asp(β-tert-butyl)methyl Vinyl Sulfone Tosyl Salt], the IC50 (Caspase-7) is reported as greater than 3.33 µM, the IC50 (Caspase-5) is reported as greater than 3.33 µM and the IC50 (Caspase-1) is reported as greater than 3.33 µM. The “activity against caspase-3” value (Caspase-3) was “devoid of any activity”, the IC50 (Caspase-3; [2]) was greater than 10 µM and the IC50 (Glo3/7) was greater than 50 µM. The inhibition at 50 µM [1, 4] was 30%, the inhibition at 50 µM [1, 3] was 50% and the IC50 (Caspase-9) was greater than 3.33 µM.
Work on `CC(C)[C@H](NC(=O)[C@@H](NC(=O)[C@H](CC(=O)O)NC(=O)OCc1ccccc1)c1ccccc1)C(=O)N[C@H](/C=C/S(=O)(=O)c1ccccc1)CC(=O)O` [Compound 69, Z-Asp-Phg-Val-Asp-phenyl Vinylsulfone] yielded an IC50 (Caspase-7) of 1.8 µM, an IC50 (Caspase-5) greater than 10 µM and an IC50 (Caspase-1) greater than 3.33 µM. The IC50 (Caspase-3; [2]) was 0.1 µM, the IC50 (Glo3/7) was 1.4 µM and the inhibition at 50 µM [1, 4] was 20%. For the same compound, the inhibition at 50 µM [1, 3] was 35% and the IC50 (Caspase-9) was greater than 3.33 µM.
`CC(C)[C@H](NC(=O)[C@@H](NC(=O)[C@H](CC(=O)OC(C)(C)C)NC(=O)OCc1ccccc1)c1ccccc1)C(=O)O` [Compound 16, Z-Asp(β-tert-butyl)-Phg-Val-OH] (Cbz-Asp(OtBu)-[Phg]-Val-OH) showed an IC50 (Caspase-7) greater than 3.33 µM, an IC50 (Caspase-5) greater than 3.33 µM and an IC50 (Caspase-1) greater than 3.33 µM. For the same compound, the “activity against caspase-3” value (Caspase-3) was “devoid of any activity”, the IC50 (Caspase-3; [2]) was greater than 2 µM and the IC50 (Glo3/7) was greater than 50 µM. For the same compound, the inhibition at 50 µM [1, 4] was 13%, the inhibition at 50 µM [1, 3] was 23% and the IC50 (Caspase-9) was greater than 3.33 µM.
Work on `CC(C)(C)OC(=O)C[C@H](N)/C=C/S(=O)(=O)c1ccccc1` [Compound 37, Asp-vinyl Phenyl Sulfone Salt Form] yielded an IC50 (Caspase-7) greater than 3.33 µM, an IC50 (Caspase-5) greater than 3.33 µM and an IC50 (Caspase-1) greater than 3.33 µM. It also gave an IC50 (Caspase-3; [2]) greater than 2 µM, an IC50 (Glo3/7) greater than 50 µM and an inhibition at 50 µM [1, 4] of 20%. It also gave an inhibition at 50 µM [1, 3] of 35% and an IC50 (Caspase-9) greater than 3.33 µM.
In the case of `CS(=O)(=O)/C=C/[C@@H](N)CC(=O)O.Cc1ccc(S(=O)(=O)O)cc1` [Compound 93, AspVSmethyl], the IC50 (Caspase-7) is reported as greater than 3.33 µM, the IC50 (Caspase-5) is reported as greater than 3.33 µM and the IC50 (Caspase-1) is reported as greater than 3.33 µM. For the same compound, the “activity against caspase-3” value (Caspase-3) was “devoid of any activity”, the IC50 (Caspase-3; [2]) was greater than 10 µM and the IC50 (Glo3/7) was greater than 50 µM. The inhibition at 50 µM [1, 4] was 15%, the inhibition at 50 µM [1, 3] was 25% and the IC50 (Caspase-9) was greater than 3.33 µM.
For `CC(C)[C@H](NC(=O)[C@H](CCC(=O)O)NC(=O)[C@H](Cc1ccc(O)cc1)NC(=O)OCc1ccccc1)C(=O)N[C@H](/C=C/S(C)(=O)=O)CC(=O)O` [Compound 82], the IC50 (Caspase-7) was greater than 5 µM, the IC50 (Caspase-5) was greater than 3 µM and the IC50 (Caspase-1) was 0.5 µM. The IC50 (Caspase-3; [2]) was 0.3 µM, the IC50 (Glo3/7) was 3.7 µM and the inhibition at 50 µM [1, 4] was 15%. For the same compound, the inhibition at 50 µM [1, 3] was 15% and the IC50 (Caspase-9) was 1.6 µM.
For `CC(C)[C@H](NC(=O)[C@H](Cc1ccc2ccccc2n1)NC(=O)[C@H](CC(=O)O)NC(=O)OCc1ccccc1)C(=O)N[C@H](/C=C/S(C)(=O)=O)CC(=O)O` [Compound 55, Z-Asp-Ala(2′-quinolyl)-Val-Aspmethyl vinyl sulfone], the IC50 (Caspase-7) was 1.4 µM, the IC50 (Caspase-5) was greater than 10 µM and the “inhibitory activity for caspase-5” value (Caspase-5; [5]) was “No significant inhibitory activity”. For the same compound, the IC50 (Caspase-1) was greater than 10 µM, the “inhibitory activity for caspase-1” value (Caspase-1; [5]) was “No significant inhibitory activity” and the IC50 (Glo3/7) was 0.1 µM. The “effectivity in inhibiting PARP cleavage” value ([1]; Hela cells) was “showing effectivity especially relative to DEVD-fmk”, the IC50 (Caspase-9) was greater than 3.33 µM and the “inhibitory activity for caspase-9” value (Caspase-9; [5]) was “No significant inhibitory activity”.
For `CC(C)[C@H](NC(=O)[C@H](Cc1ccc(O)cc1)NC(=O)[C@H](CC(=O)O)NC(=O)OCc1ccccc1)C(=O)N[C@H](/C=C/S(C)(=O)=O)CC(=O)O` [Compound 76, Z-Asp-Tyr-Val-Aspmethyl vinyl sulfone], the IC50 (Caspase-7) was 0.7 µM, the IC50 (Caspase-5) was greater than 3.33 µM and the IC50 (Caspase-1) was greater than 3.33 µM. For the same compound, the IC50 (Caspase-3; [2]) was 0.03 µM, the IC50 (Glo3/7) was 0.04 µM and the inhibition at 50 µM [1, 4] was greater than 50%. For the same compound, the IC50 (Caspase-9) was greater than 3.33 µM.
In the case of `CC(C)[C@H](NC(=O)[C@H](Cc1ccc2ccccc2n1)NC(=O)[C@H](CC(=O)O)NC(=O)OCc1ccccc1)C(=O)N[C@H](/C=C(\Cl)S(C)(=O)=O)CC(=O)O` [Compound 48, Z-Asp-Ala(2′-quinolyl)-Val-Asp-achlorovinyl methylsulfone], the IC50 (Caspase-7) is reported as 0.4 µM, the IC50 (Caspase-5) is reported as greater than 3.33 µM and the IC50 (Caspase-1) is reported as greater than 3.33 µM. It also gave an IC50 (Caspase-3; [2]) of 0.01 µM, an IC50 (Caspase-3; read-out: IC50 caspase-3) of 0.008 to 0.03 µM and an IC50 (Glo3/7) of 0.1 µM. The “effectivity in inhibiting PARP cleavage” value ([1]; Hela cells) was “showing effectivity especially relative to DEVD-fmk” and the IC50 (Caspase-9) was 1.2 µM.
With `CC(C)[C@H](NC(=O)[C@H](Cc1ccccn1)NC(=O)[C@H](CC(=O)O)NC(=O)OCc1ccccc1)C(=O)N[C@H](/C=C/S(=O)(=O)c1ccccc1)CC(=O)O` [Compound 85] the IC50 (Caspase-7) was 1 µM, the IC50 (Caspase-5) was greater than 3.33 µM and the IC50 (Caspase-1) was greater than 3.33 µM. It also gave an IC50 (Caspase-3; [2]) of 0.03 µM, an IC50 (Glo3/7) of 0.3 µM and an inhibition at 50 µM [1, 3] of 45%. It also gave an IC50 (Caspase-9) greater than 3.33 µM.
Compound `Cc1ccc(S(=O)(=O)N[C@@H](Cc2ccc3ccccc3n2)C(=O)N[C@H](C(=O)N[C@H](/C=C(\Cl)S(C)(=O)=O)CC(=O)O)C(C)C)cc1` [Compound 50] has an IC50 (Caspase-7) greater than 3.33 µM, an IC50 (Caspase-5) greater than 3.33 µM and an IC50 (Caspase-1) greater than 3.33 µM. For the same compound, the IC50 (Caspase-3; [2]) was greater than 3.33 µM, the IC50 (Glo3/7) was 40 µM and the inhibition at 50 µM [1, 4] was 0%. For the same compound, the inhibition at 50 µM [1, 3] was 0% and the IC50 (Caspase-9) was greater than 3.33 µM.
Work on `CC(C)[C@H](NC(=O)[C@H](Cc1ccc(O)cc1)NC(=O)OCc1ccccc1)C(=O)N[C@@H](C)C(=O)N[C@H](/C=C/S(=O)(=O)c1ccccc1)CC(=O)O` [Compound 96, z-Tyr-Val-Ala-AspVS phenyl] yielded an IC50 (Caspase-7) greater than 10 µM, an IC50 (Caspase-5) greater than 3.33 µM and an IC50 (Caspase-1) of 1.3 µM. The IC50 (Caspase-3; [2]) was greater than 10 µM, the IC50 (Glo3/7) was greater than 50 µM and the inhibition at 50 µM [1, 4] was 1%. For the same compound, the inhibition at 50 µM [1, 3] was 2% and the IC50 (Caspase-9) was greater than 10 µM.
